Target: ACAT1 (Homo sapiens (Human), UniProt P24752)
Assay: ACAT1 small molecule inhibitor screening (enzyme activity, IC50)
Assay type: biochemical
Conditions: summary of Table 1; unit given as mol/L
Method: ACAT1 can catalyze two molecules of acetyl coenzyme A to reversibly form acetoacetyl coenzyme A. Its activity was measured through the reaction between ACAT1-catalyzed substrate acetoacetyl-coenzyme A and coenzyme A, from which the product acetyl-coenzyme A is produced. Since acetoacetyl-coenzyme A is specifically absorbed in a specific spectrum, the impact on the enzyme activity of ACAT1 can be reflected through the detection of an increase or decrease of absorption in a specific spectrum.
ACAT1 recombinant proteins were expressed and purified by Escherichia coli, and the concentration of ACAT1 recombinant proteins obtained was 1 mg/mL. The buffers adopted for ACAT1 small molecule inhibitor screening were 50 mM Tris-HCl (pH 8.1), 20 mM MgCl2, and 40 mM KCl. In 200 μL of enzyme catalytic system, 1 μL of ACAT1 recombinant proteins, the substrate acetyl-coenzyme A whose final concentration was changed from 25 μM to 100 μM through a CPM probe, and small molecule inhibitors at different concentrations were added, respectively. The measurement was carried out through a microplate reader (Biotek Synergy H1) and using excitation light at 355 nm and emission light at 460 nm, and the IC50 of the inhibitors was calculated through software Prism 7.0.

Sequence of ACAT1 (P24752 34-427): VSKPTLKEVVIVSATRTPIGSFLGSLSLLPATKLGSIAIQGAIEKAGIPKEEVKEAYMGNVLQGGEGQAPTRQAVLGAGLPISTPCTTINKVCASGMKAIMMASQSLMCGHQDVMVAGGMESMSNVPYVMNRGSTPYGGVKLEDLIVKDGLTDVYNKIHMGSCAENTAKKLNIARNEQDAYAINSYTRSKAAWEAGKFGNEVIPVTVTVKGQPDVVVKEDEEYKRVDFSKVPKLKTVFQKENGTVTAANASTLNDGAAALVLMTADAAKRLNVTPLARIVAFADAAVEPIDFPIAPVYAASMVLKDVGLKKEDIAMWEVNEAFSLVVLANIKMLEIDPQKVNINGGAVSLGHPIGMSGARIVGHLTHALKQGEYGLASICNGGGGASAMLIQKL

SMILES	IC50 [µM]
COc1ccc(CCOc2ccc(NC(=O)/C=C/c3ccc(O)c(O)c3)cc2)cc1 [Compound M5]	< 100
Cc1ccc(CCOc2ccc(NC(=O)/C=C/c3ccc(O)c(O)c3)cc2)cc1 [Compound M7]	< 100
COc1ccc(CCOc2ccc(NC(=O)/C=C/c3ccc(O)c(O)c3)cc2)cc1OC [Compound M9]	< 100
COc1cc(CCOc2ccc(NC(=O)/C=C/c3ccc(O)c(O)c3)cc2)cc(OC)c1OC [Compound M10]	< 100
COCOc1ccc(/C=C/C(=O)Nc2ccc(OCCc3ccc(OC)cc3)cc2)cc1OCOC [Compound M12]	< 100
COCOc1ccc(/C=C/C(=O)Nc2ccc(OCCc3cc(OC)c(OC)c(OC)c3)cc2)cc1OCOC [Compound M17]	< 100

From patent US20250248955A1, “PHENYL ACRYLIC ACID COMPOUND, AND PREPARATION METHOD AND APPLICATION THEREOF” (LONGIVITRON (SUZHOU) BIOTECHNOLOGY CO., LTD, priority 2022, published 2025)
